# Source: publication PMC6901946, “Intranasal MMI-0100 Attenuates Aβ1−42- and LPS-Induced Neuroinflammation and Memory Impairments via the MK2 Signaling Pathway” (Frontiers in Immunology, 2019)
# Ends that are not written are not given here.
# Assays:
# Kunming mice [1] = experiment: Novel object recognition (NOR) task; type: in vivo, mouse; conditions: Aβ1−42 800 pmol i.c.v. 14 days before, tested after 24 h
# Method: (§1) MMI-0100 or vehicle was infused into the brain by using a 32-gauge stainless steel syringe needle placed in and projecting 0.5 mm below the tip of the cannula for 2 min. This needle was connected via a PE tube to a 5-μl Hamilton syringe mounted to a Microdrive pump (KD Scientific). To allow the drug to diffuse, the infusion syringe remained in place for 1 min. For the lateral ventricle, injection volume is 2 μl, and for the bilateral hippocampus CA1, injection volume is 0.5 μl/side. After drug administration, each mouse was subjected to behavioral testing immediately. In addition, the selection of the doses was based on the previous reports and our preliminary observations ([24]).
# (§2) The behavior experiments were carried out 15 min after i.c.v. injection of MMI-0100, or 2 h after intranasal infusion of MMI-0100. The cytokines were measured 15 min after i.c.v. injection of MMI-0100.
# (§3) The procedures for the novel object recognition (NOR) and object location recognition (OLR) tasks were described in our previous report ([23], [30]). The videos for NOR and OLR tasks were shown in Supplementary Material. […] The discrimination index (DI) in the memory retention phase was calculated as the percentage of the time a mouse explored the new object or location over the total time the mouse explored the two objects or locations. […]
# Kunming mice [2] = experiment: Object location recognition (OLR) task; type: in vivo, mouse; conditions: Aβ1−42 800 pmol i.c.v. 14 days before, tested after 24 h
# Method: as §1, §2, §3
# IL-6, IL-1β, TNF-α, iNOS = experiment: Quantitative PCR of pro-inflammatory factors in hippocampus; type: in vivo, mouse; conditions: Aβ1−42-induced model; 15 min after i.c.v. MMI-0100; Figure 5; n = 5
# Method: Amnesia was caused by Aβ1−42 injection for 14 days or LPS infusion for 3 days; 15 min after injection of MMI-0100 or vehicle, the hippocampus was removed from mice. Real-time RT-PCR was performed according to a previous report ([31]). Total RNA was extracted using Trizol reagent (TaKaRa) and 1 μg of RNA in each sample was reversely transcribed into a single-stranded complementary DNA with the 5X PrimeScript RT Master Mix (TaKaRa) following the manufacturer's instructions. Amplification was carried out in a 25 μl reaction mixture consisting of 12.5 μl of 2X SYBR Premis Ex TaqTM II, 2 μl of cDNA, 1 μl of forward primer, 1 μl of reverse primer, and 8.5 μl of H2O, and was run under the following conditions: 95°C for 30 s, followed by 40 cycles of 95°C for 5 s, 58°C for 30 s, and 72°C for 30 s. The primer pair P1/P2 was used in the RT-PCR assay to identify the expression level of TNF-α, IL-6, IL-1β, and iNOS gene in vehicle + vehicle-, Aβ1−42 + vehicle-, Aβ1−42 + MMI-0100-, LPS + vehicle-, and LPS + MMI-0100-treated groups.
# TNF-α, IL-1β, IL-6 = experiment: ELISA of pro-inflammatory cytokines in hippocampus; type: in vivo, mouse; conditions: Aβ1−42-induced model, Figure 6, n = 5
# Method: Total proteins from the hippocampus of mice in each group were extracted with RIPA lysis buffer containing protease inhibitor (Gibco, Thermo Fisher Scientific, Inc.). Total proteins were determined using a bicinchoninic acid protein assay kit (Sangon Biotech Co., Ltd.). IL-1β, IL-6, and TNF-α in the hippocampus tissue were measured using ELISA kits (cat number: E-EL-M0049 for TNF-α, cat number: E-EL-M0044 for IL-6, cat number: E-EL-M0037 for IL-1β, Elabscience), according to the manufacturer's instructions.
# MK2 = molecular target: T1, MK2 (Mus musculus, UniProt P49138); experiment: Western blotting of pMK2 in hippocampus; type: in vivo; conditions: Aβ1−42-induced model; Figure 7; n = 5
# T1 construct: the protein samples (40 μg per lane) isolated from the hippocampus were separated by SDS-PAGE; from tissue; host or cells: mouse hippocampus
# Method: Western blotting was carried out as per the manufacturer's instructions (Bio-Rad Laboratories, Inc). Protein was extracted with RIPA buffer containing protease inhibitor (Gibco; Thermo Fisher Scientific, Inc.). The protein concentration was determined using a BCA protein assay kit (Pierce; Thermo Fisher Scientific, Inc.). Briefly, the protein samples (40 μg per lane) isolated from the hippocampus were separated by SDS-PAGE and electrophoretically transferred onto polyvinylidene fluoride membranes. Membranes were blocked with 5% skimmed milk for 2 h and incubated overnight at 4°C with specific first antibodies. GAPDH was used as a loading control. Subsequently, the membranes were incubated with the corresponding secondary antibodies and the reaction was visualized with chemiluminescence reagents provided with an ECL kit (Thermo) and exposed to a film. The intensity of the blots was quantified with densitometry (Image J 1.49v; National Institutes of Health).
# in vitro = conditions: mouse, brain homogenates
# Method: The peptide levels after incubation were expressed as percent parent remaining. Points indicate the means and vertical lines indicate the SEM of 3 separate experiments.
# [3] = intranasal experiment (Figure 10), MMI-0100 25 nmol intranasal or vehicle
# T1 sequence (P49138 whole entry): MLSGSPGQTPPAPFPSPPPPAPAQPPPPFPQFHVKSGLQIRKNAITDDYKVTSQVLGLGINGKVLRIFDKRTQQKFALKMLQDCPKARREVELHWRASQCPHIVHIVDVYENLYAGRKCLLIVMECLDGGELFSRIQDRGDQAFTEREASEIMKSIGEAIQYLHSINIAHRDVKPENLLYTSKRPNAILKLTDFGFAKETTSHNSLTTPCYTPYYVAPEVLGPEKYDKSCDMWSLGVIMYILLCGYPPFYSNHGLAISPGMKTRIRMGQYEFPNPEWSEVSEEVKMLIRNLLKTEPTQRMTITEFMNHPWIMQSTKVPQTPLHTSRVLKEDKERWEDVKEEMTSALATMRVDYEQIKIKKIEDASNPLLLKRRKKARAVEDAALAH
Substance,"discrimination index (DI), NOR (Kunming mice [1]; Figure 2A, MMI-0100 5 nmol i.c.v. or vehicle, chance level 50%)","discrimination index (DI), NOR (Kunming mice [1]; [3])","discrimination index (DI), OLR (Kunming mice [2]; Figure 3A, MMI-0100 5 nmol i.c.v. or vehicle, chance level 50%)","discrimination index (DI), OLR (Kunming mice [2]; [3])","mRNA level of IL-6, IL-1β, TNF-α and iNOS in hippocampus (IL-6, IL-1β, TNF-α, iNOS)","protein levels of IL-6, IL-1β and TNF-α in hippocampus (TNF-α, IL-1β, IL-6)",phosphorylation of MK2 (pMK2/tMK2) in hippocampus (MK2),half-life (in vitro)
"Aβ1−42: Aβ1−42 peptide purchased from Hangzhou Chinese Peptide Biochemical Company, oligomer used to induce AD model",50.96%,50.98%,48.04%,46.31%,dramatically increased,higher,significantly up-regulated,
YARAAARQARAKALARQLGVAA [MMI-0100],,,,,,,,~2.69 h
